This is an account of results in patent publication US20240368133A1, “Compounds for the Treatment of Pain, in Particular, Neuropathic Pain, and/or Other Diseases or Disorders that are Associated with AT2R and/or AT2R Mediated Signaling” (Confo Therapeutics N.V., priority 2021, published 2024).

Series [1] can be described thus: Liver microsomal stability, human. The following applies: pH 7.4, liver microsomes. Format: in vitro ADME. How it is done:
Microsomal incubations were carried out in 96-well plates in 5 aliquots of 40 μL each (one for each time point). Liver microsomal incubation medium contained PBS (100 mM, pH 7.4), MgCl2 (3.3 mM), NADPH (3 mM), glucose-6-phosphate (5.3 mM), glucose-6-phosphate dehydrogenase (0.67 units/ml) with 0.42 mg of liver microsomal protein per ml. Control incubations were performed replacing the NADPH-cofactor system with PBS. Test compound (2 μM, final solvent concentration 1.6%) was incubated with microsomes at 37° C., shaking at 100 rpm. Incubations were performed in duplicates. Five time points over 40 minutes have been analyzed. The reactions were stopped by adding 12 volumes of 90% acetonitrile-water to incubation aliquots, followed by protein sedimentation by centrifuging at 5500 rpm for 3 minutes. […]. Supernatants were analyzed using the HPLC system coupled with tandem mass spectrometer (API3000 PE Sciex). Acquisition and analysis of the data were performed using Analyst 1.5.2 software (PE Sciex). The elimination constant (kel), half-life (t½) and intrinsic clearance (Clint) were determined in plot of […] versus time, using linear regression analysis:
A 10 mM stock solution of compound in DMSO is diluted three-fold in DMSO. This pre-diluted compound solution is then further diluted to 2 μM in a 50 mM phosphate buffer (PBS, pH 7.4) and pre-warmed at 37° C. This compound dilution is mixed F2 with microsomal/cofactor mix at 37° C. under shaking at 300 rpm. Final reaction conditions are: 100 μL incubation volume, 1 μM of test compound (in duplicate), <0.1% DMSO, 0.5 mg/mL microsomes, 0.6 U/mL Glucose-6-phosphate-dehydrogenase (G6PDH, Roche, 10127671001), 3.3 mM MgCl2 (Sigma, M2670), 3.3 mM glucose-6-phosphate (Sigma, G-7879) and 1.3 mM NADP+ (Sigma, N-0505).
After 60 min of incubation at 300 rpm and 37° C., the reaction was stopped with 3 volumes of STOP solution (acetonitrile/MeOH 2/1 with diclofenac as internal standard). For the time point zero, 3 volumes of STOP solution were added to the compound dilution before the microsome mix was added. Six time points over 60 minutes have been analyzed. The samples of all time points were centrifuged, filtered and the supernatant analyzed by LCMS/MS (systems API4000).
The instrument responses (peak areas/IS peak area) were referenced to the zero time-point samples (considered as 100%) in order to determine the percentage of compound remaining.
Testosterone (1 μM) and Propranolol and Caffeine (1 μM) were used as reference compounds, being unstable and stable compounds respectively. If the microsomal stability values for these controls are not in the range determined by the historical data, the assay is not validated. The solubility of the compound in the final test concentration in 50 mM buffer pH 7.4 is checked by microscope to indicate whether precipitation is observed or not. If a precipitate is observed, no data of microsomal stability is generated.
Background: Liver microsomes are a subcellular fraction often used to study metabolism.

The target of a further series is CYP1A2 (Homo sapiens (Human), UniProt P05177). The series is described as follows: in vitro. How it is done:
The aim of this assay is to determine the inhibitory potential of a test compound. A major concern for drug-drug-interaction is cytochrome P450 inhibition. Reversible CYP inhibition was determined in human liver microsomes using specific probe substrates for human cytochrome P450 isoenzymes CYP1A2, 2C9, 2C19, 2D6 and 3A4.
The potential for CYP450 inhibition was assessed by performing in vitro inhibition studies using fluorogenic CYP450 substrates with the corresponding CYP450 enzymes and NADPH regeneration system (Vivid CYP450 Screening Kits) with some minor changes to the manufacturer's protocols. The fluorescent signal produced from reaction is directly proportional to the cytochrome P450 activity. In the cases when tested compounds interfere with the CYP450 enzyme-substrate reaction, the fluorescent signal decreases. In brief, the tested compounds were first dissolved in DMSO at 100× concentration (1 mM), and diluted in buffer to 2.5× concentration (25 μM). Then the 2.5× compound solutions were mixed with the Master Pre-mix consisting of Human CYP450+Oxidoreductase and NADP+Regeneration System (glucose-6-phosphate and glucose-6-phosphate dehydrogenase). After 10 minutes pre-incubation, the enzymatic reaction was initiated by the addition of a mix of NADPH and the appropriate CYP450 substrates. The plate was incubated for the desired reaction time (25 min for CYP1A2, CYP2C9, CYP2D6, and CYP3A4, 60 min for CYP2C19) after which Stop Reagent was added and fluorescence measured using SpectraMax Paradigm Multi-Mode Microplate Reader. All test points were performed in quadruplicates at concentration 10 μM (1% DMSO).
A 10 mM stock solution of test compound is prepared in methanol. This stock is further serially diluted 1:3 in methanol and then added to mixture containing 50 mM potassium phosphate buffer pH7.4, human liver microsomes (BD Gentest) and probe substrate. After pre-warming 5 min at 37° C., the reaction is started by adding co-factor mix ([…] glucose-6-phosphate, 1.7 mg/mL NADP, 6 U/mL of glucose-6-phosphate dehydrogenase), resulting in a final concentration of test compound at 10 μM (2% MeOH).
Final concentrations of co-factor mix components are as follows: 1.56 mg/mL glucose-6-phosphate, 0.34 mg/mL NADP, 1.2 U/mL of glucose-6-phosphate dehydrogenase.
After incubation at 37° C., the reaction (aliquot of 50 μL) is terminated with 150 μL CH3CN:MeOH (2:1) solution with internal standard (warfarin for 2C9, diclofenac for all other tested isoforms). Samples are centrifuged and the supernatant fractions analyzed by LC-MS/MS.
The instrument responses (ratio of test compound and internal standard peak areas) are referenced to those for solvent controls (assumed as 100%) in order to determine the percentage reduction in probe metabolism. Percent of control activity vs. concentration plots are generated and fitted using GraphPad Prism software to generate IC50.

Chain of CYP1A2 (P05177 whole entry): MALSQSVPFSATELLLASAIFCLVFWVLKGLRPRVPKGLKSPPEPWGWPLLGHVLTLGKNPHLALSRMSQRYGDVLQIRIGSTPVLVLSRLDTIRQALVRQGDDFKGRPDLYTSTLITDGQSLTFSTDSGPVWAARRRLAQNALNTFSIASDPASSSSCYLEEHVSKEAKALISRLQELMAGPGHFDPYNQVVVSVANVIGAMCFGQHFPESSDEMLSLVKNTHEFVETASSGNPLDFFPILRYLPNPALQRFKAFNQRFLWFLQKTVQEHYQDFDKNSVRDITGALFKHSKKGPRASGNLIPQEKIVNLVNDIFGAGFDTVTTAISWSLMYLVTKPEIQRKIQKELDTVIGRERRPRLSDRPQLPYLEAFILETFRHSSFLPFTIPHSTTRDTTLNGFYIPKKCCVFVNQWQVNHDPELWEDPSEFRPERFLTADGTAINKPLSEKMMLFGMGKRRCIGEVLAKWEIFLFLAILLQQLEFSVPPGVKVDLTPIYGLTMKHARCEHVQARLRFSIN

In general, microsomal CLint refers to the rate of metabolic loss divided by the concentration. The low end stands for slow turnover, the high end for rapid turnover. Consider `CCCCOC(=O)NS(=O)(=O)c1ccc(C(F)(F)F)cc1N1CCN(Cc2nc3ccccc3n2C)CC1` [Compound A-09, butyl N-[2-[4-[(1-methylbenzimidazol-2-yl)methyl]piperazin-1-yl]-4-(trifluoromethyl)phenyl]sulfonylcarbamate], for which the microsomal CLint in series [1] was found to be 37 µL/min/mg. The term inhibition denotes the share of the control response that was lost under treatment. Compound `CCCCNC(=O)NS(=O)(=O)c1ccc(C(F)(F)F)cc1N1CCN(Cc2nc3ccccc3n2C)CC1` [Compound A-10, 1-butyl-3-[2-[4-[(1-methylbenzimidazol-2-yl)methyl]piperazin-1-yl]-4-(trifluoromethyl)phenyl]sulfonyl-urea] gave an inhibition at 10 µM against CYP1A2 of 23%. The compound further registered a microsomal CLint in series [1] of 99 µL/min/mg.

In turn, `CCCCNC(=O)NS(=O)(=O)c1ccc(C)cc1N1CCN(Cc2nc3ccccc3n2C)CC1` [Compound A-12, 1-butyl-3-[4-methyl-2-[4-[(1-methylbenzimidazol-2-yl)methyl]piperazin-1-yl]phenyl]sulfonyl-urea] gave a microsomal CLint in series [1] of 259 µL/min/mg. On the same count and under the same terms, under `CC(C)Cc1ccc(-c2nn[nH]n2)c(N2CCN(Cc3nc4ccccc4n3C)CC2)c1` [Compound A-20, 2-[[4-[5-isobutyl-2-(2H-tetrazol-5-yl)-phenyl]piperazin-1-yl]methyl]-1-meth-yl-benzimidazole] stands 24 µL/min/mg.

As to `CC(C)Oc1ccc(-c2nn[nH]n2)c(N2CCN(Cc3nc4ccccc4n3C)CC2)c1` [Compound A-24, 2-[[4-[5-isopropoxy-2-(2H-tetrazol-5-yl)phenyl]piperazin-1-yl]methyl]-1-methyl-benzimidazole], the inhibition at 10 µM on CYP1A2 amounted to 27.4%. The microsomal CLint in series [1] was found to be 8 µL/min/mg. In the same order, the values of `CC(C)Cc1ccc(-c2nn[nH]n2)c(N2CCN(Cc3nc4ccccc4c(=O)[nH]3)CC2)c1` [Compound A-31, 2-[[4-[5-isobutyl-2-(2H-tetrazol-5-yl)phenyl]piperazin-1-yl]methyl]-3H-quinazolin-4-one] are 6.09% and 8 µL/min/mg.

On CYP1A2, `CC(C)Oc1ccc(-c2nn[nH]n2)c(N2CCN(Cc3nc4ccccc4c(=O)[nH]3)CC2)c1` [Compound A-32] displayed an inhibition at 10 µM of 7.17%. For the same compound, in series [1], the microsomal CLint came out at 10 µL/min/mg. The compound `CC(C)Oc1ccc(-c2nn[nH]n2)c(N2CCN(Cc3nc4ccccc4s3)CC2)c1` [Compound A-51, 2-[[4-[5-isoprop-oxy-2-(2H-tetrazol-5-yl)phenyl]piper-azin-1-yl]methyl]-1,3-benzothiazole] had a microsomal CLint in series [1] of 12 µL/min/mg.

On CYP1A2, `Cc1cc(CN2CCN(c3cc(CC(C)C)ccc3-c3nn[nH]n3)CC2)no1` [Compound A-82, 3-[[4-[5-isobutyl-2-(2H-tetrazol-5-yl)phenyl]piperazin-1-yl]methyl]-5-methyl-isoxazole] yielded an inhibition at 10 µM of 9.89%. In series [1], this compound gave a microsomal CLint of 15 µL/min/mg.

`CC(C)Cc1ccc(-c2nn[nH]n2)c(N2CCN(Cc3nccn3C)CC2)c1` [Compound A-83, 1-[5-isobutyl-2-(2H-tetrazol-5-yl)-phenyl]-4-[(1-meth-ylimidazol-2-yl)-methyl]piperazine] showed an inhibition at 10 µM against CYP1A2 of 2.61%. Besides, in series [1], the microsomal CLint came to 6 µL/min/mg. At CYP1A2, `CC(C)Cc1ccc(-c2nn[nH]n2)c(N2CCN(Cc3ccnn3C)CC2)c1` [Compound A-84, 1-[5-isobutyl-2-(2H-tetrazol-5-yl)phenyl]-4-[(1-methylpyrazol-5-yl)methyl]piperazine] returned an inhibition at 10 µM of 5.6%. In series [1], this compound showed a microsomal CLint of 40 µL/min/mg. In the same order, the values of `CC(C)Cc1ccc(-c2nn[nH]n2)c(N2CCN(Cc3ncccn3)CC2)c1` [Compound A-88] are 22.5% and 6 µL/min/mg.

For the compound `CC(C)Cc1ccc(-c2nn[nH]n2)c(N2CCN(Cc3cccnn3)CC2)c1` [Compound A-90, 3-[[4-[5-isobutyl-2-(2H-tetrazol-5-yl)phenyl]piperazin-1-yl]methyl]pyridazine], on CYP1A2, 10 µM produced 10.3% inhibition. Also, in series [1], the microsomal CLint came to 7 µL/min/mg. In the same order, the values of `CC(C)Cc1cc(F)c(-c2nn[nH]n2)c(N2CCN(Cc3cccnn3)C(C)C2)c1` (stereo not shown) [Compound A-173, 3-[[4-[3-fluoro-5-isobutyl-2-(2H-tetrazol-5-yl)phenyl]-2-methyl-piperazin-1-yl]methyl]pyridazine] are 18.5% and 4 µL/min/mg. In the same order, the values of `CC(C)Cc1cc(F)c(-c2nn[nH]n2)c(N2CCN(Cc3cccnn3)[C@@H](C)C2)c1` [Compound A-174, 3-[[(2S)-4-[3-fluoro-5-isobutyl-2-(2H-tetrazol-5-yl)phenyl]-2-methyl-piperazin-1-yl]methyl]pyridazine] are 22.7% and < 6.6 µL/min/mg. Taken in the same sequence, the figures for `CCC1CN(c2cc(CC(C)C)cc(F)c2-c2nn[nH]n2)CCN1Cc1cccnn1` (stereo not shown) [Compound A-178, 3-[[2-ethyl-4-[3-fluoro-5-isobutyl-2-(2H-tetrazol-5-yl)phenyl]piperazin-1-yl]methyl]pyridazine] were 23.5% and 20 µL/min/mg. `CCC1CN(Cc2cccnn2)CCN1c1cc(CC(C)C)cc(F)c1-c1nn[nH]n1` (stereo not shown) [Compound A-181, 3-[[3-ethyl-4-[3-fluoro-5-isobutyl-2-(2H-tetrazol-5-yl)phenyl]piperazin-1-yl]methyl]pyridazine] yielded a microsomal CLint in series [1] of 12 µL/min/mg. Still for that read-out and setting: then `CC(C)Cc1cc(F)c(-c2nn[nH]n2)c(N2CC(C)N(Cc3cccnn3)CC2C)c1` (stereo not shown) [Compound A-183, 3-[[4-[3-fluoro-5-isobutyl-2-(2H-tetrazol-5-yl)phen-yl]-2,5-dimethyl-piperazin-1-yl]-methyl]pyridazine], with 7 µL/min/mg.

Regarding `CC(C)Cc1cc(F)c(-c2nn[nH]n2)c(N2CCN(Cc3ccccn3)[C@@H](C)C2)c1` [Compound A-217, (2S)-4-[3-fluoro-5-isobutyl-2-(2H-tetrazol-5-yl)phenyl]-2-methyl-1-(2-pyridylmethyl)piperazine], the inhibition at 10 µM against CYP1A2 was found to be 16%. Further, the microsomal CLint in series [1] is < 6.6 µL/min/mg. `Cc1cnc(CN2CCN(c3cc(CC(C)C)cc(F)c3-c3nn[nH]n3)C[C@@H]2C)s1` [Compound A-223, 2-[[(2S)-4-[3-fluoro-5-isobutyl-2-(2H-tetrazol-5-yl)phenyl]-2-methyl-piperazin-1-yl]methyl]-5-methyl-thiazole] yielded an inhibition at 10 µM against CYP1A2 of 16%. Also, the microsomal CLint in series [1] stood at 18.2 µL/min/mg.
